# Experimental data from patent US20240261274A1, “TREATMENT OF MYC-DRIVEN CANCERS WITH GSPT1 DEGRADERS” (MONTE ROSA THERAPEUTICS, INC., priority 2021, published 2024).
# Columns and labels:
# GSPT1 = GSPT1 (Homo sapiens, UniProt P15170+Q96SW2); experiment: GSPT1 degradation immunofluorescence assay in CAL-51 cells; type: cell-based; parameters: endogenous in cells; host or cells: CAL-51 (DSMZ ACC302); conditions: 6 hours, Table 4, read-out: Activity for GSPT1 degradation, Code (DC50)
# Procedure, shortened: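 CAL-51 cells on fibronectin treated 6 h with compound (typically 30 μM to 0.1 nM), then fixed, permeabilised and immunostained for GSPT1, with phalloidin and DAPI. High-content imaging gave mean GSPT1 intensity per segmented cell. DC50 from non-linear regression after normalisation to DMSO and CC-885 (10 μM) controls.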
# [1] = target: T1, Full length wild-type cereblon CRBN (Homo sapiens, UniProt Q96SW2); experiment: Fluorescence polarization (FP) assay indicating cereblon binding; conditions: bound stated; read-out: IC50 value
# T1 construct: Full length wild-type cereblon CRBN (80.0 nM, 10 μL) was incubated in assay buffer
# T1 sequence (Q96SW2 whole entry): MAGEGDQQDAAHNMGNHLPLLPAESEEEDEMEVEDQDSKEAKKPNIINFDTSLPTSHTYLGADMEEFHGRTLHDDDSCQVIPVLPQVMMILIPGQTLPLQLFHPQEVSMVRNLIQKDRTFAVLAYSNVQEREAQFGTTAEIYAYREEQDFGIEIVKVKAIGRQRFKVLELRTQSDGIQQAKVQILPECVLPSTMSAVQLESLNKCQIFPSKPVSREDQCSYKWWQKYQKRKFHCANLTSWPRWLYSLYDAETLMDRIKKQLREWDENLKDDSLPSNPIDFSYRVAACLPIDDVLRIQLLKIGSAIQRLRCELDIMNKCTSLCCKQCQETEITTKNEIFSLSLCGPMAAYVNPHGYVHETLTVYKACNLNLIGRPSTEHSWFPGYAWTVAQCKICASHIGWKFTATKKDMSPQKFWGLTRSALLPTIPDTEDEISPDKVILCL
# Procedure, shortened: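 Full-length wild-type CRBN at 80.0 nM was preincubated 30 min at room temperature with compound (12-point curve, 300–0.937 or 3000–9.3 nM) in 20 mM HEPES pH 8.0, 150 NaCl, 0.5 mM TCEP, 0.05% Tween 20. Cy5-type thalidomide-based probe added at 5 nM final; FP read after 12 h (ex 590/em 675 nm), normalized to DMSO, IC50 fitted.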
# Sequence of GSPT1 (P15170 whole entry): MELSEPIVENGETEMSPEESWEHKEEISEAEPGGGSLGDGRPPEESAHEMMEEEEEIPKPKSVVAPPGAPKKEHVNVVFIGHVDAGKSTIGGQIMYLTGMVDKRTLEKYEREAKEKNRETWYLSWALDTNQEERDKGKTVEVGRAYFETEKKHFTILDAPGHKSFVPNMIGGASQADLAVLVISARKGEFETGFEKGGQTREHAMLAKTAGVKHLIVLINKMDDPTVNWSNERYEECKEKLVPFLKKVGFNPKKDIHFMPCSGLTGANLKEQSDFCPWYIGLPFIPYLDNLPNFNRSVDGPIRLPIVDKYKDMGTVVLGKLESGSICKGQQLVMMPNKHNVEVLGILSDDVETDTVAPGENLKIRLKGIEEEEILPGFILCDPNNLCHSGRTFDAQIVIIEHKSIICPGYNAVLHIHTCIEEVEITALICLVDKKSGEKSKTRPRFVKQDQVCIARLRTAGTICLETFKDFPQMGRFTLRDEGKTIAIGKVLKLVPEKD
# Sequence of GSPT1 (Q96SW2 whole entry): as the sequence (Q96SW2 whole entry) above
# Sequence of GSPT1 (Q16531 whole entry partner): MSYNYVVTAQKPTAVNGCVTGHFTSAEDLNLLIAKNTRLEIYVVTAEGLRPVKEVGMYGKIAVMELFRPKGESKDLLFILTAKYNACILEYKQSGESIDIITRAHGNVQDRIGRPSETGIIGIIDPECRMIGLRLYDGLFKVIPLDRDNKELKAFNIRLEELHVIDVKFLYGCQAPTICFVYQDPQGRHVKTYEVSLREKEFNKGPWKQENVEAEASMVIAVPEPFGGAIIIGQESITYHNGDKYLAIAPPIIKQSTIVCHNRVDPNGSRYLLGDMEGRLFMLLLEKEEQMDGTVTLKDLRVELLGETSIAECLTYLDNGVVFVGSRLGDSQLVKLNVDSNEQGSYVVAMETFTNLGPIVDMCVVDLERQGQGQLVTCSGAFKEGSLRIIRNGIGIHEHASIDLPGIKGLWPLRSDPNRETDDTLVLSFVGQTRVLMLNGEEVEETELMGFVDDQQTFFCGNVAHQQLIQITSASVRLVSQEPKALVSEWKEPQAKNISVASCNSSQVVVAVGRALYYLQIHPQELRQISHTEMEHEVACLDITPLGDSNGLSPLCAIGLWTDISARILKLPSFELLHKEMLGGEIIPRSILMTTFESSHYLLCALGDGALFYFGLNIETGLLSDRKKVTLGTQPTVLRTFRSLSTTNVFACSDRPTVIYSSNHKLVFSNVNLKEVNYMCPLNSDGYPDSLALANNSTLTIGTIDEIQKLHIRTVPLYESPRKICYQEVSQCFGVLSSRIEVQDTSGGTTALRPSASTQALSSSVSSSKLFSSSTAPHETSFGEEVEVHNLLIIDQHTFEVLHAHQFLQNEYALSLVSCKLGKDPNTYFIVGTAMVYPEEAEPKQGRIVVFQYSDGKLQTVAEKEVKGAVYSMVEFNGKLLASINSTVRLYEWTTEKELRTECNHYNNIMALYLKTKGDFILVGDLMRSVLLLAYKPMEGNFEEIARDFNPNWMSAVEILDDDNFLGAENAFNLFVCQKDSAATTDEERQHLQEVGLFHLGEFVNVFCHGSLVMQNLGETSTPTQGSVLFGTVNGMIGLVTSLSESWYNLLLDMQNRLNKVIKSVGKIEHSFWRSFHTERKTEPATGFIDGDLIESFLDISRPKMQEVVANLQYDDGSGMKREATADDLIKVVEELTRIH
Structure (SMILES),DC50 (GSPT1),IC50 [1]
Cc1ccc(NC(=O)NCc2ccc3c(c2)C(=O)N(C2CCC(=O)NC2=O)C3)cc1Cl (stereo not shown) [Compound 8],≤ 100 nM,< 1100 nM
Cc1c(Cl)cc(NC(=O)NCc2ccc3c(c2)C(=O)N(C2CCC(=O)NC2=O)C3)cc1CN1C2CCC1COC2 (stereo not shown) [Compound 138],≤ 100 nM,< 1100 nM
